Experimental data from patent US7053043B1, “Pharmaceutical compositions comprising synthetic peptide copolymers and methods for preventing and treating GVHD and HVGD” (Yeda Research and Development Co.Ltd., priority 1999, dated 2006).

Tests used:
[1] = system: skin graft rejection; assay: Skin graft transplantation model for HVGD; format: in vivo, mice; conditions: B10.D2 → BALB/c, FK506 300 μg/day ip, 7 injections from day −2
Procedure: Recipient mice were dorsally transplanted with circular pieces of donor skin. Mice were inspected daily. Grafts were considered rejected when no viable donor epidermis remained. The results are expressed in mean survival time (MST). P values were obtained by analysis of variance (ANOVA).
[…] The first Cop 1 treatment on day −7 was injected sc in ICFA as a depot dose. Control mice were treated daily with PBS alone and PBS with ICFA on day −7 before transplantation.
Grafts were inspected daily. Rejection was considered positive when no viable donor epidermis remained. […]

[2] = system: function of transplanted thyroids; assay: Thyroid graft assay for HVGD (125I absorption of thyroid transplanted in kidney capsule); format: in vivo, mice; conditions: B10.D2 → BALB/c, FK506 300 μg
Procedure: In this transplantation model for HVGD, thyroid glands from donor mice were transplanted in the kidney's capsules of recipient mice. One week later the transplanted mice were injected with ^125I, and the radioactivity of each kidney (the recipient or the untransplanted kidney) was measured after 20 hours. Δcpm was calculated by subtracting the ^125I absorbance of the untransplanted kidneys from the ^125I absorbance of the recipient kidneys in the same treatment. The mean function index (MFI) for treatment was calculated by dividing the mean Δcpm for the tested (Copolymer 1) treatment by the mean Δcpm for the PBS treatment. P values were obtained by the t test. This assay indicates objectively and quantitatively not only the graft survival, but also the function (iodine absorbance) of the transplanted thyroid tissue (Isakov et al., 1979).
The transplanted mice were treated daily with Copolymer 1 600 μg/day (300 μg ip+300 μg sc) in PBS solution, starting 7 days before transplantation. The first Cop 1 treatment on day −7 was injected sc in ICFA as a depot dose. Control mice were treated daily with PBS alone and PBS with ICFA on day −7 before transplantation.
To test the effect of Copolymer 1 treatment on the function of transplanted thyroids in the B10.D2→BALB/c model, thyroid glands from donors B10.D2 were transplanted in the kidney's capsules of BALB/c mice. After one week the transplanted mice were injected with ^125I, and the radioactivity of each kidney was measured 20 hours later. cpm was calculated by subtracting the ^125I absorbance of the untransplanted kidneys from the ^125I absorbance of the recipient kidneys in the same treatment. The mean function index (MFI) for each treatment was calculated by dividing the mean ^125I absorbance of (transplanted kidney-untransplanted kidney) in the tested treatment by the mean ^125I absorbance of (transplanted kidney-untransplanted kidney) in the PBS treatment, as follows: […]

[3] = system: T cell proliferation in MHC-disparate mixed lymphocyte cultures; assay: Mixed lymphocyte cultures across major histocompatibility barriers, six MHC-disparate strain combinations; format: cell-based, mice; conditions: 10–100 μg/well, all concentrations tested
Procedure: (§1) Responder cells for MLR reactions across major histocompatibility barriers were harvested from spleen of non-immunized mice while responder cells for MLR across minor histocompatibility barriers were harvested from mice which were preimmunized with irradiated (30 Gy) 50×10^6 stimulator spleen cells 21 days before. Responder cells (5×10^5 spleen cells per well) were tested for their proliferative response by plating with different amounts (2.5 to 10×10^5) of irradiated stimulator cells, in presence or absence of various peptide inhibitors (10–100 μg per well). Cultures were set up in 200 μl media containing 10% FCS in flat-bottom microtiter plates. After 4 days of incubation, cultures were pulsed with 1 μCi of [^3H]thymidine for an additional 16 hours. Results are represented as mean counts per minute (cpm) thymidine incorporation from triplicate cultures.

[4] = system: GVHD in B10.D2 → BALB/c recipients; assay: Murine lethal GVHD model after bone marrow transplantation, B10.D2/nSnJ→BALB/c; format: in vivo, mice; conditions: for overall incidence of GVHD: 600 μg per injection (ip + sc), Cop 1 Batch I
Procedure: The murine GVHD model of B10.D2/nSnJ→BALB/c mice (both H-2^d) across minor histocompatibility barriers, was selected since it is similar to the MHC matched bone marrow transplantation in humans. For the induction of GVHD, 10×10^6 bone marrow and 100×10^6 spleen cells from B10.D2 mice were injected into lethally irradiated (8.0 Gy) BALB/c recipients. […] Recipient mice were 12–13 weeks at the time of transplantation.
Based on previous studies with Cop 1 in EAE (Sela et al., 1990; Teitelbaum et al., 1971; Teitelbaum et al., 1973) and class II-binding competitor peptides in GVHD (Schlegel et al., 1994), the dosage of 600 μg per injection was selected, half of which was administered intraperitoneally (ip), whereas the other half was given subcutaneously (sc). Treatment of BALB/c recipient mice was initiated on day −1, followed by daily injections for the first five weeks starting on day 0 after transplantation. The frequency of injections was tapered to three times per week for the subsequent two weeks and to two times per week for another two weeks and then discontinued. Throughout the experiment, copolymers and controls were administered once a week with incomplete Freund's adjuvant (IFA) ip as a depot dose (Schlegel et al., 1994). Treatment was discontinued 9 weeks after transplantation.
Mice were followed up daily for 140 days after bone marrow transplantation for signs of GVHD. Disease severity was assessed by mortality, loss of body weight, and by the extent of macroscopic skin involvement scored on a cumulative scale (from min O— max 8): head 1, neck 1, back (1/3, 2/3, 3/3) 1–3, front (1/3, 2/3, 3/3) 1–3. Skin biopsies were examined as previously described (Schlegel et al., 1994).
(ii) Effect of Copolymer 1 Treatment on the Incidence, Onset and Severity of GVHD. […] For the first five weeks after transplant mice were injected daily as outlined in Materials and Methods, followed by a tapering schedule over an additional four weeks.
(iii) Effect of Copolymer 1 treatment on survival. […]

[5] = system: proliferation of B10.PL (H-2u) responder cells to PL/J stimulator cells; assay: Mixed lymphocyte reaction (MLR) across minor histocompatibility barriers; format: cell-based, mice; conditions: 20 μg/well, Cop 1 Batch I, 1:1 ratio of responder to stimulator cells
Procedure: as §1
(§2) To investigate the feasibility of inhibition of MLR by Copolymer 1, an MLR system was developed in which Copolymer 1 was tested for its ability to inhibit the proliferation of B10.PL (H-2^u) responder cells to stimulator cells of either the same (PL/J) or different (BALB/c) H-2 haplotype. For comparison, the inhibitory MBP Ac 1-11[4A], MBP 35-47, a combination of Ac 1-1[4A]+MBP 35-47, MBP 89-101 and KM-core peptides, described in Schlegel et al. (1994), were used in the MLR experiments.
(§3) The inhibition obtained by Copolymer 1 was similar (in response to minor histocompatibility antigen) or even higher (in response to major histocompatibility antigen) than the inhibition obtained with the combination of the two synthetic peptides Ac 1-11[4A] and MBP 35-47, which specifically bind to the class II molecules I-A^u and the I-E^u, respectively. The molar efficiency of Copolymer 1 of M.W. 6000 is even higher since the molecular weight of the synthetic peptides is 4–5 fold lower.

[6] = system: proliferation of B10.PL (H-2u) responder cells to BALB/c stimulator cells; assay: Mixed lymphocyte reaction (MLR) across major histocompatibility barriers, B10.PL vs BALB/c; format: cell-based, mice; conditions: 20 μg/well, Cop 1 Batch I, 1:1 ratio of responder to stimulator cells
Procedure: as §1, §2, §3

## C=CC[C@@H]1/C=C(\C)C[C@H](C)C[C@H](OC)[C@H]2O[C@@](O)(C(=O)C(=O)N3CCCC[C@H]3C(=O)O[C@H](/C(C)=C/[C@@H]3CC[C@@H](O)[C@H](OC)C3)[C@H](C)[C@@H](O)CC1=O)[C@H](C)C[C@@H]2OC [FK506]
[1]
  MST ± SD (Mean Survival Time of skin graft): 21.2 ± 4.3 days
[1]; listed as FK 506
  MST ± SD (Mean Survival Time of skin graft): 21.2 days
[2]
  Mean 125I Absorption, Transplanted Kidney (cpm): 3117 cpm
  Mean 125I Absorption, Untransplanted Kidney (cpm): 693 cpm
  cpm (transplanted minus untransplanted kidney): 2424 cpm
[2]; folds over PBS treatment
  MFI (mean function index): 3.1

## Hen egg-white lysozyme [HEL]
[3]
  inhibitory effect on the MLC: no or only minimal inhibitory effect
[4]; 600 μg per injection
  long-term survival from lethal graft-versus-host disease: did not improve long-term survival
[4]; day 30 after transplant
  overall incidence of GVHD: 100%
[4]; day 70 after transplant
  overall incidence of GVHD: 100%
[4]; days after transplant, 600 μg per injection
  median onset of GVHD: 22 days

## KM-core: KMKMVAAHAKMKM (SEQ ID NO:3), based on the antigenic core sequence of ovalbumin 323–339 (KMKMVHAAHAKMKM)
[5]
  inhibition of MLR: did not induce any significant effect
[6]
  inhibition of MLR: did not induce any significant effect

## MBP 89-101: peptide VHFFKNIVTPRTP (SEQ ID NO:4) of myelin basic protein
[5]
  inhibition of MLR: did not induce any significant effect
[6]
  inhibition of MLR: did not induce any significant effect
